From patent EP0634173B1, “24-epi-1-alpha-hydroxyvitamin D2 for treating osteoporosis” (WISCONSIN ALUMNI RESEARCH FOUNDATION, priority 1993, dated 1995)
Read-outs that look alike come from different tables or passages of the source. Marks after values point to notes of the source that are not given here.

How the values were obtained:
[1] = system: human leukemia cells (HL-60 cells); conditions: 4-day trial period, cited from earlier work
[2] = system: human leukemia cells (HL-60 cells); conditions: 4-day trial period, cited from earlier work; remark: listed apart in the source
[3] = system: human leukemia cells (HL-60 cells); test: HL-60 cell differentiation, text summary over both NBT-reduction and phagocytosis assays; assay type: cell-based; conditions: HL-60 cell differentiation activity
Description: The assays were conducted as described by Ostrem et al (J. Biol. Chem. 262, 14164-14171, 1987), and by DeLuca et al (U. S. Patent 4,717,721). […] Even at doses as low as 10^-8M, this compound produced approximately 64-67% differentiation in the 4-day trial period in both the NBT-reduction and the phagocytosis assay. […] Thus, 1α-hydroxy-24-epi-vitamin D2 has little or no activity in promoting differentiation of promyelocytes to monocytes.

[4] = system: human leukemia cells (HL-60 cells); conditions: cited from earlier work
[5] = system: rats made osteoporotic by ovariectomy; test: Restoration of bone mass (femur ash) in oophorectomized rats; assay type: in vivo, rat; conditions: for restoration of bone mass: result in words, previously tested, compared with the compound of the present study; for Total Femur Ash (mg ± SEM) / Ash (% ± SEM): oophorectomized rats, 325 pmol/day for 20 days by Alzet osmotic minipump; for Ash (% ± SEM): femur
Source text: At 13 weeks, the animals were either sham-operated or oophorectomized. They continued on the same diet for an additional 16 weeks. Ouring the last 20 days, the animals received the indicated dose of either 1α-hydroxyvitamin D2 or 24-epi-1α-hydroxyvitamin D2, in propylene glycol, delivered each day by Alzet osmotic minipump for a period of 20 days. The animals were killed and their femurs were used to determine total bone ash and percent ash. There were 6 animals in each group and the data are expressed as average ± standard error of the mean. Oophorectomy results in a lack of estrogen reminiscent of the menopausal state.

[6] = system: vitamin D-deficient rat; conditions: cited from earlier work; for Bone Mobilization Serum Ca: 20 h prior to sacrifice, vitamin D-free, low calcium diet; for activity in mobilizing calcium from bone: result in words, animals on a low calcium diet
[7] = system: vitamin D-deficient rat; conditions: cited from earlier work; for Ca Transport S/M Ratio: 20 h prior to sacrifice, vitamin D-free, low calcium diet

| SMILES | % Differentiation NBT Reduction ([1]; 1 x 10^-7 M) [%] | % Differentiation NBT Reduction ([1]; 1 x 10^-8 M) [%] | % Differentiation NBT Reduction ([1]; 2 x 10^-8 M) [%] | % Differentiation NBT Reduction ([1]; 5 x 10^-8 M) [%] | % Differentiation Phagocytosis ([2]; 1 x 10^-7 M) [%] | % Differentiation Phagocytosis ([2]; 1 x 10^-8 M) [%] | % Differentiation Phagocytosis ([2]; 2 x 10^-8 M) [%] | % Differentiation Phagocytosis ([2]; 5 x 10^-8 M) [%] | differentiation ([4]; 1-2 x 10^-8M) | differentiation ([4]; 10^-7M) | restoration of bone mass [5] | Total Femur Ash (mg ± SEM) [5] [mg] | Ash (% ± SEM) [5] [%] | Bone Mobilization Serum Ca ([6]; 325 pmol) | activity in mobilizing calcium from bone [6] | Ca Transport S/M Ratio ([7]; 325 pmol) | also measured |
| --- | --- | --- | --- | --- | --- | --- | --- | --- | --- | --- | --- | --- | --- | --- | --- | --- | --- |
| C=C1/C(=C\C=C2/CCC[C@]3(C)[C@@H]([C@H](C)/C=C/[C@@H](C)C(C)(C)O)CC[C@@H]23)C[C@@H](O)C[C@@H]1O [1α,25-Dihydroxy-24-epi-vitamin D2, 1α,25-dihydroxy-24-epi-vitamin D2] | 80 ± 3 | 39 ± 3 | 48 ± 3 | 64 ± 3 | 81 ± 3 | 40 ± 3 | 49 ± 2 | 62 ± 3 | 40-50% | 80% | – | – | – | – | – | – | times less active than the 1α,25-dihydroxyvitamin D3 standard [3]: about 5; differentiation ([4]; 5 x 10^-8M): > 60% |
| C=C1/C(=C\C=C2/CCC[C@]3(C)[C@@H]([C@H](C)CCCC(C)(C)O)CC[C@@H]23)C[C@@H](O)C[C@@H]1O [1α,25-Dihydroxy-vitamin D3, 1α,25-dihydroxyvitamin D3] | 87 ± 2 | 64 ± 2 | – | – | 89 ± 3 | 67 ± 3 | – | – | – | – | restored some bone mass | – | – | – | – | – | differentiation ([4]; 10^-8M, 4-day trial period, both NBT-reduction and phagocytosis assay): 64-67% |
| C=C1/C(=C\C=C2/CCC[C@]3(C)[C@@H]([C@H](C)/C=C/[C@@H](C)C(C)C)CC[C@@H]23)C[C@@H](O)C[C@@H]1O [1α-Hydroxy-24-epi-vitamin D2, 24-epi-1α-hydroxyvitamin D2] | 22 ± 2 | 4 ± 2 | 6 ± 2 | 14 ± 2 | 16 ± 2 | 4 ± 2 | 6 ± 3 | 9 ± 1 | does not elicit a significant differentiation response | 16-20% | – | 400 | 60.5 ± 0.5 | 3.9 ± 0.39^b mg % | no activity | 4.3 ± 0.42^a | Total Femur Ash (mg ± SEM) ([5]; listed as 24-epi-1α-OH-D2): 400 ± 16.4^d mg; Bone Mobilization Serum Ca ([6]; 650 pmol): 4.1 ± 0.23^b mg %; Ca Transport S/M Ratio ([7]; 650 pmol): 4.4 ± 0.70^a; activity in stimulating intestinal calcium transport ([7]; result in words, data of Table 1): high activity |
| C=C1/C(=C\C=C2/CCC[C@]3(C)[C@@H]([C@H](C)/C=C/[C@H](C)C(C)C)CC[C@@H]23)C[C@@H](O)C[C@@H]1O [1α-Hydroxy-vitamin D2, 1α-hydroxyvitamin D2] | – | – | – | – | – | – | – | – | – | – | – | 377 | 58.6 ± 0.55 | 5.3 ± 0.15^a mg % | strongly active | 5.4 ± 0.37^a | Total Femur Ash (mg ± SEM) ([5]; listed as 1α-OH-D2): 377 ± 15.2^c mg |
| C=C1/C(=C\C=C2/CCC[C@]3(C)[C@@H]([C@H](C)CCCC(C)C)CC[C@@H]23)C[C@@H](O)C[C@@H]1O [1α-hydroxyvitamin D3] | – | – | – | – | – | – | – | – | – | – | restored some bone mass | – | – | – | – | – | – |
